Source: patent US9592407B2, “Pharmaceutical composition and uses thereof” (CHANG GUNG MEMORIAL HOSPITAL, LINKOU, priority 2012, dated 2017)
pIC50: −log10 of the molar value. Read-outs that look alike come from different tables or passages of the source.

How the values were obtained:
Mahlavu (HCC) = test: Combination drug treatment, Combination Index and IC50 (Example 6); format: cell-based, Human
Text: (§1) Chou: Theoretical Basis, Experimental Design, and Computerized Simulation of Synergism and Antagonism in Drug Combination Studies, Pharmacological Reviews.

HeLa (Cervical) = test: as above; format: cell-based
Text: as §1

BAX [1] = test: Induction of BAX expression by cellular stresses (Example 2); format: cell-based, Human; details: all three HCC cell lines following treatment
Text: (§2) A subset of NPM was translocated to cytoplasm 6 hr after UV irradiation (indicated by an arrow in the right panel).
(§3) The expression of β-actin was used as the loading control. Simultaneous induction of BAX (pro-apoptosis) and NPM (anti-apoptosis) of cells upon cellular stress represents counteracting mechanisms regulating apoptosis versus survival response.

NPM = test: Induction of NPM expression by cellular stresses (Example 2); format: cell-based, Human; details: HCC cell lines following exposure; cisplatin 5.5, 69, 6.4 μg/ml, doxorubicin 1.4, 8.8, 5 μg/ml
Text: as §2, §3

BAX [2] = test: BAX mitochondrial translocation and oligomerization in liver cancer cells (Example 4); format: cell-based, Human; details: Hep3B and Mahlavu cells
Text: FIG. 6A illustrates the expression of NPM and BAX in the cytosol and the mitochondria of Mahlavu liver cancer cells following UV irradiation with or without transfected siRNA targeting NPM (NPM) or siRNA with scrambled sequences (NS). FIG. 6B illustrates the effect of siNPM and siNS on BAX dimmers (indicated with an asterisk) and BAX oligomers (twin-asterisk) in the mitochondria or the nuclei.
FIG. 6A illustrates cytoplasmic NPM increased after UV irradiation, whereas BAX increased in the cytosol and mitochondria after UV irradiation. Suppressing NPM expression by siRNA reduced the cytosolic BAX, while mitochondrial BAX level increased. […] Prohibitin (PHB) and glyceraldehyde 3-phosphate dehydrogenase (GAPDH) were used as the markers for mitochondrial and cytosolic components, respectively. Similar result for mitochondrial BAX enhancement was observed by inhibiting NPM with chemotherapeutic agents, such as staurosporin in Hep3B and Mahlavu cells.
A non-reducing condition for preparing cellular proteins was employed to validate the above findings.

[3] = Homo sapiens, concentration of the named drug in Lapatinib + NSC348884 combination therapy, 72 hours, read-out: IC50 Combination Therapy
[4] = Homo sapiens, monotherapy, 72 hours after exposure, read-out: IC50 Monotherapy
[5] = concentration of the named drug in Lapatinib + NSC348884 combination therapy, 72 hours, read-out: IC50 Combination Therapy
[6] = monotherapy, 72 hours after exposure, read-out: IC50 Monotherapy

Work on `CS(=O)(=O)CCNCc1ccc(-c2ccc3ncnc(Nc4ccc(OCc5cccc(F)c5)c(Cl)c4)c3c2)o1` [Lapatinib] yielded a pIC50 (Mahlavu (HCC); [3]) of 4.84, a pIC50 (Mahlavu (HCC); [4]) of 4.89 and a pIC50 (HeLa (Cervical); [3]) of 4.73. It also gave a pIC50 (HeLa (Cervical); [4]) of 4.68.

With `Cc1ccc2nc(CN(CCN(Cc3nc4ccc(C)cc4[nH]3)Cc3nc4ccc(C)cc4[nH]3)Cc3nc4ccc(C)cc4[nH]3)[nH]c2c1` [NSC348884] the pIC50 (Mahlavu (HCC); [5]) was 5.42, the pIC50 (Mahlavu (HCC); [6]) was 5.21 and the pIC50 (HeLa (Cervical); [5]) was 5.31. For the same molecule, the pIC50 (HeLa (Cervical); [6]) was 5.20.

`N.N.[Cl][Pt][Cl]` [cisplatin] was tested, and the BAX expression (BAX [1]) was “increased” and the NPM expression (NPM) was “upregulated”.

For `COc1cccc2c1C(=O)c1c(O)c3c(c(O)c1C2=O)C[C@@](O)(C(=O)CO)C[C@@H]3O[C@H]1C[C@H](N)[C@H](O)[C@H](C)O1` [doxorubicin], the BAX expression (BAX [1]) was “increased” and the NPM expression (NPM) was “upregulated”.

For `CN[C@@H]1C[C@H]2O[C@@](C)([C@@H]1OC)n1c3ccccc3c3c4c(c5c6ccccc6n2c5c31)C(=O)NC4` [staurosporin], the “mitochondrial BAX” value (BAX [2]) was “enhancement”.
